Results taken from patent US20040116523A1, “Use of c4-c10 acids for preventing gram-negative bacterial infections” (priority 2000, published 2004).

Columns and labels:
[1] = test system: S. typhi; settings: 0.25 g/l; cited from earlier work
[2] = test system: Shigella sonnei; settings: 0.25 g/l; cited from earlier work
[3] = test system: Vibrio cholerae; settings: 0.25 g/l; cited from earlier work
[4] = test system: Gram-positive or Gram-negative bacteria; settings: in vitro, concentration not given; cited from earlier work
[5] = test system: S. typhimurium C52; assay: Splenic colonization of C57Bl/6 mice infected orally with S. typhimurium C52; assay type: in vivo
Method: The 5-6-week-old female C57Bl/6 mice used in the context of this experiment originated from the IFFA-CREDO breeding centre (LArbresle, France).
They were infected orally in the following way. The Salmonella strains were cultured in TCS broth for 18 hours at 37° C. with shaking (200 rpm). This culture was then adjusted to […] (in the stationary growth phase, 1 OD600 =1.5 ×10^9 bacteria/ml), and then the number of viable bacteria was controlled by counting on TCS agar.
On the day of infection (DO), the drinking-water bottles of the mice were replaced with bottles containing 100 ml of drinking water to which the required number of bacteria had been added.
After infection for 24 hours ([…]), the bottles containing the contaminated drinking water were replaced with bottles containing uncontaminated drinking water.
Seven days after infection (D+7), the spleens of the mice infected in this way were removed and homogenized separately in 1 ml of physiological saline containing 0.7% of NaCl.
The number of viable bacteria per spleen was determined by plating out dilutions of the homogenate, onto TCS agar.
The effect of the composition of the drinking water on the splenic colonization by Salmonella was estimated using the Student's t test.
The S. typhimurium strain C52 was used to infect C57Bl/6 mice orally.
On this figure, the number of viable bacteria is given as the mean (log10) of the values ± the standard deviation. […]

[6] = test system: Salmonellae; assay: Bactericidal or bacteriostatic effect on the Salmonellae at neutral pH; assay type: cell-based, Salmonella
[7] = test system: tviB′-lacZ fusion (S. typhi strain Ty266); assay: β-galactosidase activity of the tviB′-lacZ fusion (specificity control); assay type: cell-based; settings: 5 mM in favourable LB medium
Method: (§1) Each of the strains described above was cultured at 37° C. on agar or in TCS broth. The P-galactosidase activity was determined using 4-methyl-umbelliferyl-p-D-galactopyranoside sold by the company Sigma, according to the technique of Klarsfeld et al. (Mol. Mibrobiol., 1994, 13, 585-597). The results, expressed in P-galactosidase units (fluorescence per hour and per OD600), represent the mean of the values obtained in at least three independent experiments. The standard deviations were less than 10% of the values presented.
The tviB gene has been characterized in S. typhi, and it encodes a GDP-dehydrogenase involved in the biosynthesis of the Vi antigen, which is the capsular polysaccharide of the typhus bacillus (Waxin et al., Res. Microbiol., 1993, 144, 363-371).
The results are reported on FIG. 4, in which it is seen that samples were taken every two hours in order to measure the OD600 (corresponding to the open symbols) and in order to determine the β-galactosidase activity (corresponding to the solid symbols).

[8] = test system: iagA′-lacZ fusion (S. typhi strain Ty267); assay: β-galactosidase activity of the iagA′-lacZ fusion in favourable LB medium; assay type: cell-based
[9] = test system: S. typhi strain Ty2; assay: Mobility by the U-tube culturing technique; assay type: cell-based; settings: U tube supplemented with 5 mM
Method: The mobility of each strain was studied using the U-tube culturing technique (Popoff and Le Minor, Guide pour la preparation des serum anti-Salmonella (Guide for preparing salmonella antisera], 1997). When necessary, the culture media were supplemented with chloramphenicol (Cm) at 15 μg/ml.

[10] = test system: invF′-lacZ fusion (S. typhi strain Ty272); assay: β-galactosidase activity of the invF′-lacZ fusion in favourable LB medium; assay type: cell-based
Method: (§2) The favourable LB medium (high osmolarity and concentration of Ca^2+ions) was defined as being the standard LB medium modified so as to have a final NaCl concentration of 300 mM and a final Ca concentration of 5 mM.
as §1
(§3) For this, the S. typhi strains Ty267, Ty272 and Ty277, which carry the iagA′-lacZ, invF′-lacZ and sipB′-lacZ fusions, respectively, (see Table I), were cultured in the favourable LB or unfavourable LB medium.
(§4) The action of these two compounds on the expression of the iagA′-lacZ, invF′-lacZ and sipB′-lacZ fusions was studied by measuring the β-galactosidase activity expressed by these fusions as a function of the time of culturing (samples removed every two hours).

[11] = test system: sipB′-lacZ fusion (S. typhi strain Ty277); assay: β-galactosidase activity of the sipB′-lacZ fusion in favourable LB medium; assay type: cell-based
Method: as §2, §1, §3, §4

[12] = test system: iagA′-lacZ fusion (S. typhi strain Ty267); assay: β-galactosidase activity of the iagA′-lacZ fusion in favourable LB medium; assay type: cell-based; settings: 5 mM in favourable LB medium, 6 hours at 37° C.
Method: as §2
as §1, with “presented. […]” for “presented.”
The β-galactosidase activity of the iagA′-lacZ fusion was measured after incubation for 6 hours at 37° C. with shaking (200 rpm).
The S. typhi Ty267 strain (iagA′-lacZ fusion) was seeded into favourable LB medium and into favourable LB medium containing the fatty acid to be tested, in the form of its sodium salt, at the final concentration of 5 mM.

[13] = test system: iagA′-lacZcat fusion in S. typhi strain Ty267; assay: "Biotype 100" plate screen for carbon-based substrates that repress the iagA′-lacZcat fusion (β-galactosidase activity); assay type: cell-based; settings: "Biotype 100" cupule, amount of substrate not known; favourable LB medium; 36 hours at 37° C.; control cupule without substrate 11 250
Method: as §1
A “Biotype 100”® plate sold by the company BioMerieux is composed of 100 microcupules. Each micro-cupule contains a dehydrated carbon-based substrate, with the exception of the first cupule, which is a control without substrate (the amount of dehydrated substrate per cupule is not given by the manufacturer).
In the context of the present example, these plates were used to search for carbon-based compounds which would block the expression of the invasion genes in Salmonella.
For this, the S. typhi strain Ty267, which is a derivative of the parental strain Ty2 carrying the iagA′-lacZcat transcriptional fusion (Table I), was cultured in TCS broth for 18 hours at 37° C. with shaking (200 rpm).
This culture was then diluted 100-fold in favourable LB medium (0.6 ml of culture for 60 ml of favourable LB), and then this suspension was used immediately to seed the 100 cupules of a “Biotype 100”® plate, in a proportion of 450 μl of suspension per cupule.
After incubation for 36 hours in an incubator at 37° C., the activity of the iagA′-lacZcat fusion in the Ty267 strain was determined for the culture of each cupule.
By comparing the value of the P-galactosidase activity measured in a cupule containing a carbon-based substrate with that of the control cupule without substrate, it was possible to investigate whether a substrate had no effect on, activated or repressed the expression of the iagA′-lacZcat fusion.
The S. typhi strain Ty267 (iagA′-lacZ fusion), suspended in the favourable LB medium, was used to seed the “Biotype 100”® plates.
The β-galactosidase activity expressed by the iagA′-lacZ fusion was determined for the culture in each cupule. With respect to the β-galactosidase activity measured in the control cupule without substrate (11 250 β-galactosidase units), no substrate caused an increase in the expression of the iagA′-lacZ fusion.

[14] = concentration greater than or equal to 2.5 mM, favourable LB medium

SMILES | bactericidal activity in vitro on S. typhi [1] | bactericidal activity in vitro on Shigella sonnei [2] | bactericidal activity in vitro on Vibrio cholerae [3] | bacteriostatic or bactericidal effect on Gram-positive or Gram-negative bacteria [4] | effect on the level of splenic colonization / protection (in words) ([5]; 50 mM (EDTA 10 mM) in drinking water, 5 × 10^7 bacteria orally) | Number of viable bacteria in the spleen (mean log10) (Table III) ([5]; 50 mM each (EDTA 10 mM) in drinking water pH 7.2-7.3 from two days before infection, 5 × 10^7 bacteria (125 LD50) orally, D+7, distilled water 7.9 ± 0.3) | bactericidal or bacteriostatic effect on the Salmonellae [6] | effect on the expression of the tviB′-lacZ fusion [7] | decrease of the activity of the iagA′-lacZ fusion with respect to favourable LB medium without the substance ([8]; 1 mM in favourable LB medium) | expression of the iagA gene (iagA′-lacZ fusion) [8, 14] | mobility of the Ty2 strain [9] | decrease of the activity of the invF′-lacZ fusion with respect to favourable LB medium without the substance ([10]; 1 mM in favourable LB medium) | expression of the invF gene (invF′-lacZ fusion) [10, 14] | decrease of the activity of the sipB′-lacZ fusion with respect to favourable LB medium without the substance ([11]; 1 mM in favourable LB medium) | expression of the sipB gene (sipB′-lacZ fusion) [11, 14] | β-galactosidase activity of the iagA′-lacZ fusion (Table II) ([12]; control 12134 ± 1811) | inhibition of the expression of the iagA′-lacZ fusion in S. typhi (in words) ([12]; sodium salt) | β-galactosidase activity expressed by the iagA′-lacZ fusion in the cupule [13]
CCCCCCCCCCCC(=O)O [lauric acid] | bactericidal activity | bactericidal activity | bactericidal activity | very effective | – | – | – | – | – | – | – | – | – | – | – | – | – | –
O=C([O-])c1ccccc1.[Na+] [sodium benzoate] | – | – | – | – | no effect | 7.8 ± 0.8 log10 | none of these compounds has any significant bactericidal or bacteriostatic effect | no significant effect | 50% | very strongly represses | same mobility | 50% | very strongly represses | 50% | very strongly represses | 190 ± 17 β-galactosidase units | inhibit | 245 β-galactosidase units
